Key:
Assay in all cases: relative viability (nuclei count vs DMSO), 5 days (fraction); higher = more cells survive
[1] = compound: CC(C)C[C@@H](C(=O)N[C@H](C(=O)OC1CCCC1)c1ccccc1)[C@H](O)C(=O)NO [Tosedostat] + COc1cc2c(Oc3ccc(NC(=O)C4(C(=O)Nc5ccc(F)cc5)CC4)cc3F)ccnc2cc1OCCCN1CCOCC1 [Foretinib] (partner 0.25 µM)
Summary of the method: (§1)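 Relative viability was taken as the ratio of nuclei in treated wells to nuclei in vehicle wells. Lung cancer cell lines in 1536-well plates received compounds by pin tool one day after seeding, either one drug alone or a fixed anchor-drug dose plus five library-drug doses (not always all listed) in √10 steps. Nuclei were counted on 4× images after 5 days of treatment, and values are medians of duplicate plates.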

[2] = compound: CC(C)C[C@@H](C(=O)N[C@H](C(=O)OC1CCCC1)c1ccccc1)[C@H](O)C(=O)NO [Tosedostat] + C[C@@H](Oc1cc(-c2cnn(C3CCNCC3)c2)cnc1N)c1c(Cl)ccc(F)c1Cl [Crizotinib] (partner 1 µM)
Summary of the method: as §1

[3] = compound: CC(C)C[C@@H](C(=O)N[C@H](C(=O)OC1CCCC1)c1ccccc1)[C@H](O)C(=O)NO [Tosedostat] + C[C@]1(O)C[C@@H](c2nc(-c3ccc4ccc(-c5ccccc5)nc4c3)c3c(N)nccn32)C1 [Linsitinib] (partner 1 µM)
Summary of the method: as §1

[4] = compound: CC1=NN=C(O1)C2=NN=C(C=C2)N3CCC(CC3)OC4=C(C=CC(=C4)F)Cl + CS(=O)(=O)N1CCN(Cc2cc3nc(-c4cccc5[nH]ncc45)nc(N4CCOCC4)c3s2)CC1 [Pictilisib] (partner 1 µM)
Summary of the method: as §1

| Cell Line | relative viability ([1]; first compound 0.02 µM) | relative viability ([1]; first compound 0.06325 µM) | relative viability ([1]; first compound 0.2 µM) | relative viability ([1]; first compound 0.6325 µM) | relative viability ([1]; first compound 2 µM) | relative viability ([2]; first compound 0.02 µM) | relative viability ([2]; first compound 0.06325 µM) | relative viability ([2]; first compound 0.2 µM) | relative viability ([2]; first compound 0.6325 µM) | relative viability ([2]; first compound 2 µM) | relative viability ([3]; first compound 0.02 µM) | relative viability ([3]; first compound 0.06325 µM) | relative viability ([3]; first compound 0.2 µM) | relative viability ([3]; first compound 0.6325 µM) | relative viability ([3]; first compound 2 µM) | relative viability ([4]; first compound 0.253 µM) | relative viability ([4]; first compound 0.8 µM) | relative viability ([4]; first compound 2.53 µM) | relative viability ([4]; first compound 8 µM) |
| --- | --- | --- | --- | --- | --- | --- | --- | --- | --- | --- | --- | --- | --- | --- | --- | --- | --- | --- | --- |
| NCI-H460 | 1.05 | 1 | 0.968 | 0.977 | 1 | 0.956 | 0.787 | 0.905 | 0.708 | 0.932 | 0.845 | 0.84 | 0.857 | 0.849 | 0.942 | 0.24 | 0.329 | 0.232 | 0.221 |
| NCI-H1993 | 0.72 | 0.565 | 0.793 | 0.675 | 0.534 | 0.994 | 0.761 | 0.779 | 0.688 | 0.685 | 0.669 | 0.698 | 0.742 | 0.703 | 0.629 | 0.742 | 0.78 | 0.821 | 0.789 |
| HCC-78 | 0.518 | 0.59 | 0.545 | 0.662 | 0.684 | 0.298 | 0.337 | 0.324 | 0.371 | 0.391 | 0.397 | 0.608 | 0.429 | 0.458 | 0.573 | 0.204 | 0.234 | 0.11 | 0.184 |
| LU99A | 0.894 | 0.729 | 0.758 | 0.708 | 0.674 | 0.546 | 0.636 | 0.648 | 0.484 | 0.478 | 0.508 | 0.555 | 0.528 | 0.561 | 0.504 | 0.303 | 0.327 | 0.304 | 0.34 |
| IA-LM | 1.18 | 1.19 | 1.19 | 1.12 | 0.903 | 0.937 | 0.879 | 0.776 | 0.692 | 0.602 | 0.688 | 0.596 | 0.463 | 0.445 | 0.474 | 0.173 | 0.195 | 0.203 | 0.187 |
| NCI-H520 | 0.807 | 0.776 | – | 0.834 | 0.819 | 0.692 | 0.754 | 0.787 | 0.833 | 0.846 | 1.13 | 0.962 | 0.944 | 1.02 | 1.06 | 0.3 | 0.325 | 0.29 | 0.316 |
| HCC-827 | 0.999 | 1.09 | 1.06 | 0.946 | 0.895 | 0.954 | 0.933 | 0.977 | 0.888 | 0.756 | 0.966 | 0.934 | 0.976 | 0.857 | 0.909 | 0.544 | 0.571 | 0.609 | 0.605 |
| NCI-H1975 | 0.986 | 0.985 | 1.12 | 0.71 | 0.699 | 0.939 | 1.01 | 1.1 | 0.773 | 0.802 | 0.958 | 0.988 | 0.939 | 0.754 | 0.769 | – | 0.332 | 0.411 | 0.402 |
| NCI-H2085 | 0.919 | 0.971 | 0.915 | 0.965 | 0.875 | 0.842 | 0.98 | 0.91 | 0.896 | 0.814 | 0.935 | 0.889 | 0.724 | 0.838 | 0.836 | 0.387 | 0.471 | 0.452 | 0.39 |

— the supplement of paper PMC10307832
